# From ChEMBL document CHEMBL4513161, “CO-ADD screening of MMV (CH) - Pandemic Response Box” (2021)
# Structures can show the parent of a compound that is named as a salt.
# Tests used:
# Candida albicans = test: microbe, parasite or virus in culture; conditions: ATCC 90028, ASSAY_TEST Inhibition of Fungal Growth, detection method Absorption (OD530), plate type 384well, NBS, CORNING #3640
# Description: Antifungal activity against Candida albicans ATCC 90028 (CO-ADD:FG_001); MIC in YNB media using NBS plates, by OD630
# Staphylococcus aureus = test: microbe, parasite or virus in culture; conditions: ATCC 43300, 18 h, ASSAY_TEST Inhibition of Bacterial Growth, detection method Absorption (OD600), MEDIA CAMHB, plate type 384well, NBS, CORNING #3640
# Description: Antibacterial activity against Staphylococcus aureus MRSA ATCC 43300 (CO-ADD:GP_020); MIC in CAMBH media, using NBS plates, by OD(600)
# Acinetobacter baumannii = test: microbe, parasite or virus in culture; conditions: ATCC 19606, 18 h, ASSAY_TEST Inhibition of Bacterial Growth, detection method Absorption (OD600), MEDIA CAMHB, plate type 384well, NBS, CORNING #3640
# Description: Antibacterial activity against Acinetobacter baumannii ATCC 19606 (CO-ADD:GN_034); MIC in CAMBH media using NBS plates, by OD600
# Klebsiella pneumoniae = test: microbe, parasite or virus in culture; conditions: ATCC 700603, 18 h, ASSAY_TEST Inhibition of Bacterial Growth, detection method Absorption (OD600), MEDIA CAMHB, plate type 384well, NBS, CORNING #3640
# Description: Antibacterial activity against Klebsiella pneumoniae MDR ATCC 70063 (CO-ADD:GN_003); MIC in CAMBH media using NBS plates, by OD(600)
# Pseudomonas aeruginosa [1] = test: Antibacterial activity against Pseudomonas aeruginosa PAO397 [PAO1 d(mexAB-oprM) d(mexCD-oprJ) d(mexEF-oprN) d(mexJKL) d(mexXY) d(opmH)] (CO-ADD:GN_211); MIC in CAMBH media using NBS plates, by OD(600); assay type: functional; conditions: ASSAY_TEST Inhibition of Bacterial Growth, detection method Absorption (OD600), MEDIA CAMHB, plate type 384well, CORNING #3640, time 18 hr
# Escherichia coli = test: microbe, parasite or virus in culture; conditions: ATCC 25922, 18 h, ASSAY_TEST Inhibition of Bacterial Growth, detection method Absorption (OD600), MEDIA CAMHB, plate type 384well, NBS, CORNING #3640
# Description: Antibacterial activity against Escherichia coli ATCC 25922 (CO-ADD:GN_001); MIC in CAMBH media using NBS plates, by OD(600)
# Pseudomonas aeruginosa [2] = test: microbe, parasite or virus in culture; conditions: ATCC 27853, 18 h, ASSAY_TEST Inhibition of Bacterial Growth, detection method Absorption (OD600), MEDIA CAMHB, plate type 384well, NBS, CORNING #3640
# Description: Antibacterial activity against Pseudomonas aeruginosa ATCC 27853 (CO-ADD:GN_042); MIC in CAMBH media using NBS plates, by OD(600)
# HEK293 = test: cells; assay type: functional, Homo sapiens, ATCC CRL1573; conditions: Homo sapiens, ATCC CRL1573, HEK293; ASSAY_TEST Inhibition of Cell Viability; detection method Resazurin; Fluorescence (ex560/em590); MEDIA DMEM with 10% FBS; plate type 384well; TC; CORNING #3712; time 18 hr; read-out: CC50
# Description for Cryptococcus neoformans: Antifungal activity against Cryptococcus neoformans H99 ATCC 208821 (CO-ADD:FG_002); MIC in YNB media using NBS plates, by Resazurin OD(600-570)
Structure (SMILES),MIC (Candida albicans) [µM],MIC (Staphylococcus aureus) [µM],MIC (Acinetobacter baumannii) [µM],MIC (Klebsiella pneumoniae) [µM],MIC (Pseudomonas aeruginosa [1]) [µM],MIC (Escherichia coli) [µM],MIC (Cryptococcus neoformans) [µM],MIC (Pseudomonas aeruginosa [2]) [µM],CC50 (HEK293) [µM]
CC(C)c1cc2c(cc1S(=O)(=O)O)[C@@]1(C)CCC[C@@](C)(C(=O)O)[C@@H]1CC2 [ECABET],> 20,> 20,> 20,> 20,> 20,> 20,> 20,> 20,> 20
CCCCSc1nc(N)c2[nH]c(=O)c(=O)n(Cc3ccccc3)c2n1,> 20,> 20,> 20,> 20,> 20,> 20,> 20,> 20,> 20
Fc1ccc(-c2nc(-c3c[nH]c4ccc(Br)cc34)[nH]c2-c2ccc(F)cc2)cc1,> 20,> 20,> 20,> 20,> 20,> 20,> 20,> 20,9.15
CCc1nc(N)nc(N)c1C#CC(C)c1cc(OC)cc(-c2ccncc2)c1 (configuration not stated),> 20,2.5,> 20,> 20,> 20,> 20,> 20,> 20,6.39
COc1ccccc1CN[C@H]1C2CCN(CC2)[C@H]1C(c1ccccc1)c1ccccc1 [CP-96345],> 20,> 20,> 20,> 20,> 20,> 20,> 20,> 20,> 20
O=C(NC12CC3CC(CC(C3)C1)C2)c1cc2ccccc2[nH]1,> 20,> 20,> 20,> 20,> 20,> 20,> 20,> 20,> 20
NC[C@H]1OB(O)c2c(OCCCO)cccc21,> 20,20,5,2.5,2.5,2.5,> 20,5,> 20
O=C1CCC(N2C(=O)c3ccccc3C2=O)C(=O)N1 (configuration not stated) [THALIDOMIDE],> 20,> 20,> 20,> 20,> 20,> 20,> 20,> 20,> 20
CC(C)n1cnc2c(NCc3ccccc3)nc(NCc3ccccc3)nc21,> 20,> 20,> 20,> 20,> 20,> 20,> 20,> 20,> 20
O=C(c1nc2c(C(F)(F)F)cc(C3CC3)cn2c1Cl)N1CCN([C@H]2CC[C@H](O)CC2)C(=O)C1,> 20,> 20,> 20,> 20,> 20,> 20,> 20,> 20,> 20
COc1cc2c(O)c3c(c(-c4ccc5c(c4)OCO5)c2cc1OC)C(=O)OC3 [DIPHYLLIN],> 20,> 20,> 20,> 20,> 20,> 20,> 20,> 20,> 20
CC[C@@]1(O)C(=O)OCc2c1cc1n(c2=O)Cc2cc3c(CN(C)C)c(O)ccc3nc2-1 [TOPOTECAN HYDROCHLORIDE],> 20,> 20,> 20,> 20,> 20,> 20,> 20,> 20,0.218
CCNC(=O)Nc1cn2c(-c3ncc(CC)cn3)cc(-c3cccnc3)cc2n1,> 20,> 20,> 20,> 20,> 20,> 20,> 20,> 20,> 20
Nc1nc(-c2ccccc2)nc2[nH]nc(Nc3ccc(C(F)(F)F)cc3)c12,> 20,> 20,> 20,> 20,> 20,> 20,> 20,> 20,> 20
COc1ccc2c(c1OC)C(=O)OC2C1c2c(cc3c(c2OC)OCO3)CCN1C (configuration not stated),> 20,> 20,> 20,> 20,> 20,> 20,> 20,> 20,> 20
Nc1cnn(C2OC(CO)C(O)C2O)c(=O)n1 (configuration not stated),> 20,> 20,> 20,> 20,> 20,> 20,> 20,> 20,> 20

# More lines, main results first:
MIC (Candida albicans) [µM],MIC (Staphylococcus aureus) [µM],MIC (Acinetobacter baumannii) [µM],MIC (Klebsiella pneumoniae) [µM],MIC (Pseudomonas aeruginosa [1]) [µM],MIC (Escherichia coli) [µM],MIC (Cryptococcus neoformans) [µM],MIC (Pseudomonas aeruginosa [2]) [µM],Structure (SMILES),CC50 (HEK293) [µM]
> 20,> 20,> 20,> 20,> 20,> 20,> 20,> 20,C=C(C)n1c(=O)n(Cc2ccccc2C)c2ccccc21,> 20
> 20,> 20,> 20,> 20,> 20,> 20,> 20,> 20,Cc1cccc(C)c1C(=O)Nc1nc(-c2ccccn2)cc2ccccc12,7.29
> 20,> 20,> 20,> 20,> 20,> 20,> 20,> 20,CN(O)C(=O)c1cc2c(CN3CCC[C@H]3C(N)=O)cn(Cc3ccc(F)cc3)c2cn1,> 20
> 20,> 20,> 20,> 20,> 20,> 20,> 20,> 20,CC(=O)N1c2ccccc2NC2=C(C(=O)CC(C)(C)C2)C1c1ccc(OCc2ccccc2)cc1 (configuration not stated),> 20
> 20,> 20,> 20,> 20,> 20,> 20,> 20,> 20,COc1ccc(CNC(=O)C(NS(=O)(=O)c2ccc3nc(C)sc3c2)C(C)C)cc1 (configuration not stated),> 20
> 20,> 20,> 20,> 20,> 20,> 20,> 20,> 20,CCCCOC(=O)Nc1cc2nc(C3CCCCC3)[nH]c2cc1N(CC)CC,> 20
> 20,> 20,> 20,> 20,20,> 20,> 20,> 20,Cc1nc2ccc(Oc3ccccc3)cc2c2c1CCN2CCc1ccccc1,14.4
> 20,> 20,> 20,> 20,> 20,> 20,> 20,> 20,Oc1ccc(NCc2ccccc2OCc2ccccc2)cc1,> 20
> 20,> 20,> 20,> 20,> 20,> 20,> 20,> 20,Cc1ccc(N2CCC(CCOc3ccc(S(C)(=O)=O)cc3)CC2)nn1,> 20
≤ 0.156,> 20,> 20,> 20,> 20,> 20,0.625,> 20,O[C@@](Cn1cnnn1)(c1ccc(F)cc1F)C(F)(F)c1ccc(-c2ccc(OCC(F)(F)F)cc2)cn1 [OTESECONAZOLE],> 20
> 20,> 20,> 20,> 20,> 20,> 20,> 20,> 20,CN1c2ccc(Cl)cc2N(c2ccccc2)C(=O)c2cn(Cc3ccc(CN4CCOCC4)cc3)nc21,> 20
> 20,> 20,> 20,> 20,20,> 20,> 20,> 20,O=C(NO)C1(CS(=O)(=O)c2ccc(Oc3ccc(Cl)cc3)cc2)CCOCC1 [CTS-1027],> 20
